Assay [1] has as its system mPTP. Description: mPTP activity (Ca2+ retention) assay in isolated rat liver mitochondria. The format is biochemical. The settings on record: isolated rat liver mitochondria; Fluo5N fluorescence at 10 min after CaCl2 (75 μM) bolus; DMSO 0%, 5 μM cyclosporin A 100% inhibition. An excerpt: Pharmacological inhibition or modulation of the mPTP can be measured in well characterised ‘Ca^2+ retention’ assays performed in isolated mitochondria. In vitro, isolated mitochondria rapidly sequester exogenous Ca^2+ until the intramitochondrial Ca^2+ concentration reaches the threshold for mPTP activation. Once the pore is activated, mitochondrial integrity is compromised and the stored Ca^2+ is released. The distribution of Ca^2+ between extra- and intra-mitochondrial compartments can be measured in real time with the use of membrane-impermeant Ca^2+ sensitive fluorescent dyes. Depending on the configuration of the assay, inhibition or modulation of the mPTP either delays the opening of the pore or increases the concentration of Ca^2+ required to induce mPTP opening.
MPTP activity was measured in mitochondria freshly isolated from female Sprague Dawley (250 to 300 gram) rat livers using the following method. Cervical dislocation was performed on the rat. The liver was then perfused in-situ with ~40 ml cold Dulbecco's Phosphate Buffered Saline (DPBS) prior to dissection and transferred into 30 ml Isolation Buffer (250 mM Sucrose, 10 mM KCl, 1 mM EGTA, 1 mM EDTA, 25 mM HEPES, adjusted to pH 7.5 with 1M NaOH). Each lobe of the liver was then removed from the buffer, minced using tweezers and a scalpel into ~5 mm pieces then transferred into a 50 ml Potterton dounce homogenization tube on ice containing 30 ml ice-cold centrifugation buffer (300 mM Trehalose, 25 mM HEPES, 1 mM EGTA, 1 mM EDTA, 10 mM KCl, adjusted to pH 7.5 with 1M NaOH and supplemented with 0.1% bovine serum albumin (BSA) and complete protease inhibitor cocktail (one tablet of inhibitor per 50 mls of buffer). Homogenisation was carried out using a Teflon® pestle at 1800 rpm. The slurry was centrifuged at 800 g for 10 min at 4° C., then the supernatant centrifuged at 10,000 g for 10 min. The pellet was washed once with FLIPR assay buffer (75 mM Mannitol, 25 mM Sucrose, 5 mM Potassium Phosphate Monobasic, 20 mM Tris base, 100 mM KCl, 0.1% BSA adjusted to pH 7.4 with 5M HCl) centrifuged again, then resuspended in FLIPR assay buffer to a concentration of 8.8 mg/ml protein.
Tested compounds (10 mM stock in DMSO) were serially diluted in DMSO in half log steps to generate 10 test concentrations (final concentrations in assay 30 μM to 1 nM). An intermediate dilution of 5 μl DMSO samples into 247 μl FLIPR assay buffer was carried out prior to transfer of 5 μl into duplicate wells of a 384 well polypropylene assay plate. Control wells were 0.5% (v/v) DMSO and 5 μM cyclosporin A.
A stock mitochondria/Fluo5N assay solution was prepared in 5.6 ml FLIPR assay buffer (at RT) supplemented with succinate disodium salt (10 mM), rotenone (1 μM), Fluo5N pentapotassium salt (2 μM) and 1 ml mitochondria suspension, then transferred (15 μl) into the assay plate containing test compounds and incubated for 10 min at RT. Assay plates were processed for fluorescence detection on either a FLIPR Tetra (Molecular Devices) or CLARIOstar (BMG) plate reader. For kinetic fluorescence detection on the FLIPR, dye fluorescence was measured every 3 sec for a total of 10 min. After 12 sec, a 2.5 μl bolus of CaCl2 (75 μM) was added from a source plate containing 675 μM CaCl2 in FLIPR assay buffer. Alternatively, the 2.5 μl addition of CaCl2 was performed using a Viaflow 384, plates were incubated at RT for 10 min, and dye fluorescence measured after 10 min on the CLARIOstar plate reader. pIC50 values for tested compounds were calculated using the fluorescence value collected at the 10 min timepoint on either plate reader, with % inhibition calculated using the DMSO control and cyclosporin A values as 0 and 100% respectively.

Assay [2] relates to mPTP. The assay is described as follows: mPTP activity (Ca2+ retention) assay in isolated rat brain mitochondria. The class given is biochemical. The settings on record: isolated rat brain mitochondria; Fluo5N fluorescence at 10 min after Ca2+ (75 μM) bolus. On the procedure: MPTP activity was measured in brain mitochondria freshly isolated from female Sprague Dawley (250 to 300 gram) rats. Anaesthetised rats were perfused in-situ with ~40 ml cold Dulbecco's Phosphate Buffered Saline (DPBS), then brains dissected and transferred into 30 ml Isolation Buffer (225 mM mannitol, 75 mM sucrose, 1 mM EGTA, adjusted to pH 7.4 with 1M NaOH). The brain was minced using tweezers and a scalpel into ~5 mm pieces then transferred into a 50 ml Potterton Dounce homogenization tube on ice containing 10 ml ice-cold isolation buffer (as above with addition of Complete Protease inhibitor; 1 tablet per 50 ml buffer). Homogenisation was carried out using a Teflon® pestle at 1800 rpm. The slurry was centrifuged at 2000 g for 10 min at 4° C., then the supernatant centrifuged at 12,000 g for 9 min. The pellet was resuspended with a dounce homogeniser in isolation buffer as above but with the addition of 0.02% digitonin, centrifuged at 12,000 g for 11 min and finally resuspended in 5 ml modified isolation buffer (as above but with EGTA reduced to 0.1 mM).
Test compounds were prepared in 384 well polypropylene assay plates as described above for the liver mitochondria assay. A stock mitochondria/Fluo5N assay solution was prepared in 5.6 ml assay buffer (120 mM mannitol, 40 mM MOPS, 5 mM KH2PO4, 60 mM KCl, 10 mM pyruvate, 2 mM malate, 2 mM MgCl2, 20 μM ADP, 1.26 μM oligomycin A, adjusted to pH 7.4) supplemented with Fluo5N pentapotassium salt (2 μM) and 1 ml mitochondria suspension, then transferred (15 μl) into the assay plate containing test compounds and incubated for 10 min at RT. Assay plates were then transferred to a FLIPR Tetra plate reader (Molecular Devices). Dye fluorescence was then measured every 3 sec for a total of 10 min.

For `O=C(c1cncc(=O)[nH]1)N1CC(c2ccc(Cl)cc2)C2(CCC2)C1` (single isomer, unassigned) [Example 16b, 6-[8-(4-Chlorophenyl)-6-azaspiro[3.4]octane-6-carbonyl]-1H-pyrazin-2-one], the “mPTP Rat liver pIC50*” value with mPTP [1] is recorded as under 4.52. In addition, the “mPTP Rat brain pIC50” value with mPTP [2] was under 4.52.

Turning to `O=C(c1cncc(=O)[nH]1)N1CC(c2ccccc2)C2(CCCC2)C1` (single isomer, unassigned) [Example 17a, 6-[4-Phenyl-2-azaspiro[4.4]nonane-2-carbonyl]-1H-pyrazin-2-one], the “mPTP Rat liver pIC50*” value with mPTP [1] came to 6. Also, in the assay with mPTP [2], the “mPTP Rat brain pIC50” value is reported as 6.63.

For the molecule `O=C(c1cncc(=O)[nH]1)N1CC(c2ccccc2)C2(CCCC2)C1` (single isomer, unassigned) [Example 17b, 6-[4-phenyl-2-azaspiro[4.4]nonane-2-carbonyl]-1H-pyrazin-2-one], in the assay on mPTP [1], the “mPTP Rat liver pIC50*” value was under 4.52. The “mPTP Rat brain pIC50” value with mPTP [2] was under 4.52.

With `N#Cc1ccc(C2CN(C(=O)c3cncc(=O)[nH]3)CC23CCC3)cc1` (single isomer, unassigned) [Example 20a, 4-[6-(6-oxo-1H-pyrazine-2-carbonyl)-6-azaspiro[3.4]octan-8-yl]benzonitrile], the “mPTP Rat liver pIC50*” value in the assay with mPTP [1] was under 4.52. Besides, the “mPTP Rat brain pIC50” value with mPTP [2] is 4.64.

With `N#Cc1ccc(C2CN(C(=O)c3cncc(=O)[nH]3)CC23CCC3)cc1` (single isomer, unassigned) [Example 20b, 4-[6-(6-oxo-1H-pyrazine-2-carbonyl)-6-azaspiro[3.4]octan-8-yl]benzonitrile], the “mPTP Rat liver pIC50*” value in the assay on mPTP [1] is reported as under 4.52. Besides, the “mPTP Rat brain pIC50” value with mPTP [2] was under 4.52.

Take `O=C(c1nccc(=O)[nH]1)N1CC(c2ccccc2)C2(CCC2)C1` (single isomer, unassigned) [Example 21a, 2-[8-phenyl-6-azaspiro[3.4]octane-6-carbonyl]-3H-pyrimidin-4-one]: the “mPTP Rat liver pIC50*” value with mPTP [1] amounted to 5.94. For the same molecule, the “mPTP Rat brain pIC50” value with mPTP [2] was found to be 6.98.

Take `O=C(c1nccc(=O)[nH]1)N1CC(c2ccccc2)C2(CCC2)C1` (single isomer, unassigned) [Example 21b, 2-[8-phenyl-6-azaspiro[3.4]octane-6-carbonyl]-3H-pyrimidin-4-one]: in the assay on mPTP [1], the “mPTP Rat liver pIC50*” value is recorded as under 4.52. Besides, the “mPTP Rat brain pIC50” value in the assay with mPTP [2] is under 4.52.

With `O=C(c1cc(O)no1)N1CC(c2ccccc2)C2(CCC2)C1` (single isomer, unassigned) [Example 23a, (3-hydroxyisoxazol-5-yl)(8-phenyl-6-azaspiro[3.4]octan-6-yl)methanone], the “mPTP Rat liver pIC50*” value with mPTP [1] is listed as 6.17. Moreover, in the assay on mPTP [2], the “mPTP Rat brain pIC50” value is listed as 7.22.

As to `O=C(c1cc(O)no1)N1CC(c2ccccc2)C2(CCC2)C1` (single isomer, unassigned) [Example 23b, (3-hydroxyisoxazol-5-yl)(8-phenyl-6-azaspiro[3.4]octan-6-yl)methanone], in the assay with mPTP [1], the “mPTP Rat liver pIC50*” value is given as under 4.52. Further, in the assay with mPTP [2], the “mPTP Rat brain pIC50” value is under 4.52.

Consider `O=C(c1nccc(=O)[nH]1)N1CC(c2ccccc2)C2(CC(F)C2)C1` (single isomer, unassigned) [Example 25a, 2-(2-fluoro-8-phenyl-6-azaspiro[3.4]octane-6-carbonyl)pyrimidin-4(3H)-one], for which, in the assay with mPTP [1], the “mPTP Rat liver pIC50*” value is listed as 6.33. The “mPTP Rat brain pIC50” value in the assay on mPTP [2] was 6.88.

On to `O=C(c1nccc(=O)[nH]1)N1CC(c2ccccc2)C2(CC(F)C2)C1` (single isomer, unassigned) [Example 25b, 2-(2-fluoro-8-phenyl-6-azaspiro[3.4]octane-6-carbonyl)pyrimidin-4(3H)-one], for which the “mPTP Rat liver pIC50*” value in the assay on mPTP [1] is on record as under 4.52. In addition, the “mPTP Rat brain pIC50” value in the assay on mPTP [2] worked out at 5.57.

`O=C(c1nccc(=O)[nH]1)N1CC(c2ccccc2)C2(CC(F)C2)C1` (single isomer, unassigned) [Example 25c, 2-(2-fluoro-8-phenyl-6-azaspiro[3.4]octane-6-carbonyl)pyrimidin-4(3H)-one]: the “mPTP Rat liver pIC50*” value in the assay with mPTP [1] was 5.68. The “mPTP Rat brain pIC50” value in the assay on mPTP [2] was found to be 6.54.

For the molecule `O=C(c1nccc(=O)[nH]1)N1CC(c2ccccc2)C2(CC(F)C2)C1` (single isomer, unassigned) [Example 25d, 2-(2-fluoro-8-phenyl-6-azaspiro[3.4]octane-6-carbonyl)pyrimidin-4(3H)-one], the “mPTP Rat liver pIC50*” value in the assay on mPTP [1] is listed as under 4.52. Also, the “mPTP Rat brain pIC50” value with mPTP [2] is given as under 4.52.

Regarding `O=C(c1cccc(=O)[nH]1)N1CC(c2ccccc2)C2(CCC2)C1` (single isomer, unassigned) [Example 26a, 6-(8-phenyl-6-azaspiro[3.4]octane-6-carbonyl)pyridin-2(1H)-one], the “mPTP Rat liver pIC50*” value with mPTP [1] was found to be 4.88. Moreover, the “mPTP Rat brain pIC50” value with mPTP [2] worked out at 4.96.

For the molecule `O=C(c1cccc(=O)[nH]1)N1CC(c2ccccc2)C2(CCC2)C1` (single isomer, unassigned) [Example 26b, 6-(8-phenyl-6-azaspiro[3.4]octane-6-carbonyl)pyridin-2(1H)-one], the “mPTP Rat liver pIC50*” value in the assay with mPTP [1] is recorded as under 4.52. For the same molecule, in the assay with mPTP [2], the “mPTP Rat brain pIC50” value is under 4.52.

Take `O=C(c1ccnc(=O)[nH]1)N1CC(c2ccccc2)C2(CCC2)C1` (single isomer, unassigned) [Example 27a, 6-(8-phenyl-6-azaspiro[3.4]octane-6-carbonyl)pyrimidin-2(1H)-one]: the “mPTP Rat liver pIC50*” value in the assay on mPTP [1] turned out to be 6.11. Moreover, the “mPTP Rat brain pIC50” value in the assay with mPTP [2] turned out to be 6.34.

Take `O=C(c1ccnc(=O)[nH]1)N1CC(c2ccccc2)C2(CCC2)C1` (single isomer, unassigned) [Example 27b, 6-(8-phenyl-6-azaspiro[3.4]octane-6-carbonyl)pyrimidin-2(1H)-one]: in the assay with mPTP [1], the “mPTP Rat liver pIC50*” value is recorded as under 4.52. In the assay with mPTP [2], the “mPTP Rat brain pIC50” value is listed as under 4.52.

Consider `COc1ccc(C2CN(C(=O)c3cncc(=O)[nH]3)CC23CCC3)cc1` (single isomer, unassigned) [Example 28a, 6-(8-(4-methoxyphenyl)-6-azaspiro[3.4]octane-6-carbonyl)pyrazin-2(1H)-one], for which the “mPTP Rat liver pIC50*” value in the assay on mPTP [1] turned out to be 5.17. In addition, in the assay on mPTP [2], the “mPTP Rat brain pIC50” value stood at 5.69.

As for `COc1ccc(C2CN(C(=O)c3cncc(=O)[nH]3)CC23CCC3)cc1` (single isomer, unassigned) [Example 28b, 6-(8-(4-methoxyphenyl)-6-azaspiro[3.4]octane-6-carbonyl)pyrazin-2(1H)-one], in the assay with mPTP [1], the “mPTP Rat liver pIC50*” value was under 4.52. Moreover, the “mPTP Rat brain pIC50” value with mPTP [2] is reported as under 4.52.
